Here are results for 14 compounds from PubChem BioAssay (NCI).

Test systems include ACHN renal; MALME-3M melanoma; SK-OV-3 ovarian; MDA-MB-435; A549 NSCLC; SW-620 colon; SK-MEL-2 melanoma; HT29 colon; OVCAR-5 ovarian; SN12C renal.
Holding throughout (test): NCI-60 cell line screen, 48 h

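1) Cells in 96-well plates. 2) Compound, 48 h, 5 concentrations. 3) Linear interpolation between surrounding doses. 4) Unreached endpoint = highest concentration. TGI: concentration producing complete growth inhibition.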 Where only a bound is given, the exact number is not on record here.

Take `COc1nc2c(c(=O)n1C)N(C(C)=O)C1C(N2)OCC(OC(C)=O)C1OC(C)=O` (stereo unspecified): the TGI in the test on ACHN renal, in the test with MALME-3M melanoma, in the test on SK-OV-3 ovarian, with MDA-MB-435, with A549 NSCLC and with SW-620 colon was more than 10 µM throughout. Moreover, the TGI in the test on SK-MEL-2 melanoma, in the test with HT29 colon, in the test with OVCAR-5 ovarian and in the test on SN12C renal was more than 10 µM throughout.
Turning to `C=Cc1c(C)c(OC)cc2c1Oc1ccc(OC)c(C)c1CC2`, the TGI with ACHN renal, with MALME-3M melanoma, in the test on SK-OV-3 ovarian, in the test on MDA-MB-435, in the test on A549 NSCLC and in the test on SW-620 colon was more than 100 µM throughout. Moreover, the TGI in the test on SK-MEL-2 melanoma, in the test with HT29 colon, with OVCAR-5 ovarian and in the test on SN12C renal was more than 100 µM each time.
For `COc1cccc(/C=C2/Sc3scc(-c4ccccc4)[n+]3C2=O)c1O`, the TGI in the test on ACHN renal was 40.9 µM; in the test with SK-OV-3 ovarian, 70.4 µM; with MDA-MB-435, more than 100 µM; with A549 NSCLC, more than 100 µM; in the test with SW-620 colon, 43.8 µM; in the test on SK-MEL-2 melanoma, 89.8 µM. The TGI is 37.3 µM with HT29 colon, more than 100 µM with OVCAR-5 ovarian and 36.8 µM with SN12C renal.
As to `COc1ccc(-c2c(N)n(-c3nc4ccccc4s3)c(=O)c3cc([N+](=O)[O-])ccc23)cc1`, the TGI in the test with ACHN renal was 69.9 µM; in the test with MALME-3M melanoma, 93.7 µM; with SK-OV-3 ovarian it was 33 µM; in the test on MDA-MB-435 it was more than 100 µM; with A549 NSCLC it was 23.3 µM; with SW-620 colon, more than 100 µM. Moreover, the TGI was more than 100 µM with SK-MEL-2 melanoma, more than 100 µM with HT29 colon and 56.7 µM in the test on OVCAR-5 ovarian.
For the compound `COCn1c2ccc(OC(C)=O)cc2c2c(=O)oc(N(C)C)nc21`, the TGI in the test with ACHN renal, in the test with MALME-3M melanoma, in the test with SK-OV-3 ovarian, in the test on MDA-MB-435, in the test with A549 NSCLC and in the test on SW-620 colon was more than 100 µM in each case. The TGI with SK-MEL-2 melanoma, with HT29 colon, in the test on OVCAR-5 ovarian and with SN12C renal was more than 100 µM in each case.
For the compound `O=C(Cn1c2c(c3ccccc31)CCCC2)NC1CCCCC1`, the TGI in the test on ACHN renal, in the test with MALME-3M melanoma, in the test on SK-OV-3 ovarian, in the test on MDA-MB-435, in the test with A549 NSCLC and in the test with SW-620 colon was more than 100 µM throughout. Moreover, the TGI in the test with SK-MEL-2 melanoma, with HT29 colon, in the test with OVCAR-5 ovarian and in the test on SN12C renal was more than 100 µM each time.
Regarding `NNC(=O)c1ccc(-n2nnc(C(=O)NN)c2C(=O)NN)cc1`, the TGI in the test on ACHN renal, in the test with MALME-3M melanoma, in the test on MDA-MB-435, in the test on A549 NSCLC, in the test with SK-MEL-2 melanoma and in the test on HT29 colon was more than 100 µM in each case. Besides, the TGI with OVCAR-5 ovarian and with SN12C renal was more than 100 µM each time.
Consider `COC(=O)C1CCC(=O)N1CN(C(C)=O)c1ccccc1` (stereo unspecified), for which the TGI with ACHN renal, in the test on MALME-3M melanoma, with SK-OV-3 ovarian, with MDA-MB-435, in the test with A549 NSCLC and with SW-620 colon was more than 100 µM in each case. The TGI in the test with SK-MEL-2 melanoma, in the test with HT29 colon, in the test on OVCAR-5 ovarian and in the test on SN12C renal was more than 100 µM in each case.
`CC1=NN(c2ccccc2)C(=O)/C1=C/c1ccc(O)cc1`: the TGI in the test with ACHN renal, in the test with MALME-3M melanoma, in the test on SK-OV-3 ovarian, in the test with MDA-MB-435, in the test on A549 NSCLC and in the test on SW-620 colon was more than 100 µM in each case. Besides, the TGI in the test with SK-MEL-2 melanoma, in the test with HT29 colon, in the test on OVCAR-5 ovarian and with SN12C renal was more than 100 µM each time.
As for `C#CCOCC12C=CC(O1)C1C(=O)N(C)C(=O)C12` (stereo unspecified), the TGI in the test with ACHN renal, with MALME-3M melanoma, with SK-OV-3 ovarian, in the test with MDA-MB-435, in the test on A549 NSCLC and in the test with SW-620 colon was more than 100 µM in each case. Moreover, the TGI in the test with HT29 colon, with OVCAR-5 ovarian and in the test on SN12C renal was more than 100 µM each time.
For `O=C(O[C@H]1[C@@H](O)[C@H](n2cnc3c(Cl)ncnc32)O[C@@H]1COC(c1ccccc1)(c1ccccc1)c1ccccc1)c1ccccc1`, the TGI in the test with ACHN renal was 31 µM; in the test with SK-OV-3 ovarian, more than 100 µM; in the test with MDA-MB-435, more than 100 µM; in the test on A549 NSCLC, more than 100 µM; with SW-620 colon, more than 100 µM; in the test with SK-MEL-2 melanoma it was 49.7 µM. Further, the TGI in the test with HT29 colon was 62.1 µM; in the test with OVCAR-5 ovarian, more than 100 µM; in the test with SN12C renal it was 30.6 µM.
Take `COc1ccccc1NC(=O)/C(Cc1nc2ccc([N+](=O)[O-])cc2[nH]c1=O)=N\NC(=O)C[N+](C)(C)C`: the TGI in the test with ACHN renal, with SK-OV-3 ovarian, in the test with MDA-MB-435, with A549 NSCLC, in the test with SW-620 colon and with SK-MEL-2 melanoma was more than 100 µM each time. Further, the TGI in the test with HT29 colon, in the test with OVCAR-5 ovarian and with SN12C renal was more than 100 µM in each case.
`CCCC(=O)NC1=C(NCC)C(=O)c2ccccc2C1=O`: the TGI with ACHN renal was more than 100 µM; in the test with MALME-3M melanoma it was more than 100 µM; with SK-OV-3 ovarian, more than 100 µM; in the test with MDA-MB-435 it was 78.1 µM; with A549 NSCLC, more than 100 µM; in the test with SW-620 colon it was more than 100 µM. Further, the TGI in the test on HT29 colon, in the test on OVCAR-5 ovarian and in the test with SN12C renal was more than 100 µM in each case.
`CCOC(=O)c1sc2c(c1OC(=O)c1cccs1)c(=O)n(-c1ccccc1)c(=S)n2-c1ccccc1`: the TGI in the test with ACHN renal amounted to 37.6 µM; in the test with MALME-3M melanoma, 31.5 µM; with SK-OV-3 ovarian it was 42.9 µM; in the test with MDA-MB-435, 29.2 µM; in the test on A549 NSCLC, 38.8 µM; in the test on SW-620 colon it was 65.5 µM. The TGI with HT29 colon is 17.2 µM; in the test with OVCAR-5 ovarian, 50.7 µM; in the test on SN12C renal, 42 µM.
